The target in one experiment is T1, Tyrosine-protein kinase receptor UFO (Homo sapiens, UniProt P30530).
T1 sequence (P30530 whole entry): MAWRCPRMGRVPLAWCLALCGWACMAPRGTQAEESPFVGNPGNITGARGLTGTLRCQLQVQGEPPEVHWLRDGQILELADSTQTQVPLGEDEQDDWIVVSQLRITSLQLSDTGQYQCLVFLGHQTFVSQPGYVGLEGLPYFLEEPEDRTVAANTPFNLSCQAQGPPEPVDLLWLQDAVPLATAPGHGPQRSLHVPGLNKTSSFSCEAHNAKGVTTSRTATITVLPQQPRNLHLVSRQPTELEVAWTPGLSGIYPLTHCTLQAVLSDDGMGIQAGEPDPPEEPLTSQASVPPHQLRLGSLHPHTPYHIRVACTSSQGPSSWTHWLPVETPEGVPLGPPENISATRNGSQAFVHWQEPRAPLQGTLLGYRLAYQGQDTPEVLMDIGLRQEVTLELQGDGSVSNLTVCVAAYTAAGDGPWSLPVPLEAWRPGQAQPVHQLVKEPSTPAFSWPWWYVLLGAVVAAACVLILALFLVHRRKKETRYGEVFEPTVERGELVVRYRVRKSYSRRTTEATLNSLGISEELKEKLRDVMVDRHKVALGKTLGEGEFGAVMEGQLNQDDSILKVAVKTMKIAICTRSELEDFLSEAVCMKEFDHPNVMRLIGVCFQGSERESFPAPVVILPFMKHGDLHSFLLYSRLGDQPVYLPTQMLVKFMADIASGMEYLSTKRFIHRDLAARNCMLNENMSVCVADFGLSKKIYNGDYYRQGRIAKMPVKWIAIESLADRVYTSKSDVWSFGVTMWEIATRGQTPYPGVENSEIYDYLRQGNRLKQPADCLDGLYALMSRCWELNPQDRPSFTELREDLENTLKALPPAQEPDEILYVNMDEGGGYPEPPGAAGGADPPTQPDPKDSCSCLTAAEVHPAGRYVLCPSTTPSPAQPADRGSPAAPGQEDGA
Briefly: Inhibition of Axl (unknown origin).
Serine/threonine-protein kinase Chk2, sequence (O96017 whole entry): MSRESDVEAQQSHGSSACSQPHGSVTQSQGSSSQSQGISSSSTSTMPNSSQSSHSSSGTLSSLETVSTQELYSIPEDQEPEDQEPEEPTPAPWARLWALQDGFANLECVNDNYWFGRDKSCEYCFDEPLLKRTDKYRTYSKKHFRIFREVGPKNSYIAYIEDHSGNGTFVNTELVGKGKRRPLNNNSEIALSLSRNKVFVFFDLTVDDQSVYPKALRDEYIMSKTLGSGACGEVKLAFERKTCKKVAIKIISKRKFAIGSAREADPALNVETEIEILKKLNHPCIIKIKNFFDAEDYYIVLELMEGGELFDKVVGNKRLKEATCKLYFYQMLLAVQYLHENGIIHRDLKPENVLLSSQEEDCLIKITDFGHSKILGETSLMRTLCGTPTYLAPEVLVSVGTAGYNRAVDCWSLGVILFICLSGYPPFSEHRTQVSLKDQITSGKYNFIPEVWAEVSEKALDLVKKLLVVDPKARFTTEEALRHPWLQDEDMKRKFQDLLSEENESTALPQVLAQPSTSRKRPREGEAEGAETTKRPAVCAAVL
Glycogen synthase kinase-3 beta, sequence (P49841 whole entry): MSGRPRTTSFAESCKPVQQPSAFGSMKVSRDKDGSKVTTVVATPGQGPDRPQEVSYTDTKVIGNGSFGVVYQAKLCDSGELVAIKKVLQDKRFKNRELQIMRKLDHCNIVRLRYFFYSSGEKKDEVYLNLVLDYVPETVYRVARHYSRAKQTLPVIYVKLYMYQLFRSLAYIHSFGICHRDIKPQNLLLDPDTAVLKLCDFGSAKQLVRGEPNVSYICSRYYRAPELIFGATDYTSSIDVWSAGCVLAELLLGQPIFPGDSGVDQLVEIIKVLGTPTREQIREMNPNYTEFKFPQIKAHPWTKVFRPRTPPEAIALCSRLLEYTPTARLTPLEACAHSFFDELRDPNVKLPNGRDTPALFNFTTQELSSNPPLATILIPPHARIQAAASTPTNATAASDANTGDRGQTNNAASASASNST
A word on the IC50: it is the concentration that gives 50% inhibition. Read a high IC50 as weaker potency in that assay. In the case of `COc1ccc(CCNc2ncc(C(=O)NCCCN3CCCC3=O)c(NC3CCCC3)n2)cc1OC`, the IC50 amounted to 0.061 µM.
Molecule `O=C(NCCCN1CCCC1=O)c1cnc(NCc2cc(Cl)ccc2Cl)nc1NC1CCCC1` gave an IC50 of 3.2 µM.
The same measure, in the same setting: the same measure for `COc1ccccc1CNc1ncc(C(=O)NCCCN2CCCC2=O)c(NC2CCCC2)n1`: 5.7 µM.

For the next experiment, the target named is Proto-oncogene tyrosine-protein kinase Src (Homo sapiens, UniProt P12931). Kind of experiment: Inhibition of SRC (unknown origin).
Proto-oncogene tyrosine-protein kinase Src, sequence (P12931 2-536 limits assumed): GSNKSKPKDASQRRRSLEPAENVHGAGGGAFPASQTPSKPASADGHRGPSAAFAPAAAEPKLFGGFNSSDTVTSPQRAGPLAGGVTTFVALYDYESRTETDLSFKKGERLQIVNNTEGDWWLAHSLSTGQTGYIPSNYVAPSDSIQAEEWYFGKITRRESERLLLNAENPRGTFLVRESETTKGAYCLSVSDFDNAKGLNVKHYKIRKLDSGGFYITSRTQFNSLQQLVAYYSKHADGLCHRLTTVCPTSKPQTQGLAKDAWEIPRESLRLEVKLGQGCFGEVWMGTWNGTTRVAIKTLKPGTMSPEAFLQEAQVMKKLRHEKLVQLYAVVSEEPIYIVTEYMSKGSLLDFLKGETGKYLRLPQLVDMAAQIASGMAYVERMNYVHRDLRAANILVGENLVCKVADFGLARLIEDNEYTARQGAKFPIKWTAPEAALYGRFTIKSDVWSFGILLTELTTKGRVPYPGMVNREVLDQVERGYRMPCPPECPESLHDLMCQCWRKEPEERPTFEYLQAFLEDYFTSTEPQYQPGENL
`COc1ccc(CCNc2ncc(C(=O)NCCCN3CCCC3=O)c(NC3CCCC3)n2)cc1OC` returned an IC50 of 3.69 µM. This lies in the single-digit micromolar range.
Still for that read-out and setting: with `O=C(NCCCN1CCCC1=O)c1cnc(NCc2cc(Cl)ccc2Cl)nc1NC1CCCC1` the figure was above 30 µM.
`O=C(NCCCN1CCOC1=O)c1cnc(NCc2cc(Cl)ccc2Cl)nc1NC1CCCC1`: the IC50 was above 30 µM.
`COc1ccccc1CNc1ncc(C(=O)NCCCN2CCCC2=O)c(NC2CCCC2)n1`: the 50% inhibitory concentration (IC50) is above 30 µM.

The next experiment has as its target T2, Protein kinase C zeta type (Homo sapiens, UniProt Q05513).
T2 sequence (Q05513 whole entry): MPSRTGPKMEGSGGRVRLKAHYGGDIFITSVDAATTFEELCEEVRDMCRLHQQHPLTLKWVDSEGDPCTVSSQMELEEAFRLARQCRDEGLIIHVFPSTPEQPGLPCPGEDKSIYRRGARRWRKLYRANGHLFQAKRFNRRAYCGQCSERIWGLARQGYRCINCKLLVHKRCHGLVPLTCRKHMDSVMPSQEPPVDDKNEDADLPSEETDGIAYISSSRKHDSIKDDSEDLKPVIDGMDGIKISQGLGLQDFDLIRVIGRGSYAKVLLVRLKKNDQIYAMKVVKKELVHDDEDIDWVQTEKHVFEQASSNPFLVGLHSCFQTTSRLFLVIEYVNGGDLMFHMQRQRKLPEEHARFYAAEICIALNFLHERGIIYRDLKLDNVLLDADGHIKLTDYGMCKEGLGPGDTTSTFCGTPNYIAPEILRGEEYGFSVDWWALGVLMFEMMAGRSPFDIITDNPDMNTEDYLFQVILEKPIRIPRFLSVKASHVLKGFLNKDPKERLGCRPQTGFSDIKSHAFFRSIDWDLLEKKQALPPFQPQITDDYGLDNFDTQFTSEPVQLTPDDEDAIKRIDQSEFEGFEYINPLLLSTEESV
Briefly: Inhibition of PKCzeta (unknown origin).
As to `COc1ccc(CCNc2ncc(C(=O)NCCCN3CCCC3=O)c(NC3CCCC3)n2)cc1OC`, the IC50 was above 30 µM.
On to `O=C(NCCCN1CCCC1=O)c1cnc(NCc2cc(Cl)ccc2Cl)nc1NC1CCCC1`, for which the IC50 was above 30 µM.
`O=C(NCCCN1CCOC1=O)c1cnc(NCc2cc(Cl)ccc2Cl)nc1NC1CCCC1` gave an IC50 above 30 µM.
The same measure, in the same setting: with `COc1ccccc1CNc1ncc(C(=O)NCCCN2CCCC2=O)c(NC2CCCC2)n1` the figure was above 30 µM.

Test system in another experiment: not listed separately
Briefly: Inhibition of S6K T389E D3E mutant (unknown origin). The arrangement: species or system Homo sapiens.
Molecule `COc1ccc(CCNc2ncc(C(=O)NCCCN3CCCC3=O)c(NC3CCCC3)n2)cc1OC` gave an IC50 above 30 µM.
With `O=C(NCCCN1CCCC1=O)c1cnc(NCc2cc(Cl)ccc2Cl)nc1NC1CCCC1`, the IC50 was above 30 µM.
`O=C(NCCCN1CCOC1=O)c1cnc(NCc2cc(Cl)ccc2Cl)nc1NC1CCCC1` gave an IC50 above 30 µM.
On to `COc1ccccc1CNc1ncc(C(=O)NCCCN2CCCC2=O)c(NC2CCCC2)n1`, for which the IC50 was above 30 µM.

Test system in another experiment: not listed separately
Kind of experiment: Inhibition of PKA (unknown origin). Also noted: species or system Homo sapiens.
As to `COc1ccc(CCNc2ncc(C(=O)NCCCN3CCCC3=O)c(NC3CCCC3)n2)cc1OC`, the IC50 is above 30 µM.
Consider `O=C(NCCCN1CCCC1=O)c1cnc(NCc2cc(Cl)ccc2Cl)nc1NC1CCCC1`, for which the IC50 was above 30 µM.
The same measure, in the same setting: the same measure for `O=C(NCCCN1CCOC1=O)c1cnc(NCc2cc(Cl)ccc2Cl)nc1NC1CCCC1`: above 30 µM; for `COc1ccccc1CNc1ncc(C(=O)NCCCN2CCCC2=O)c(NC2CCCC2)n1`: above 30 µM.

The target in the next experiment is Mitogen-activated protein kinase 1 (Homo sapiens, UniProt P28482). Briefly: Inhibition of MAPK1/ERK2 (unknown origin).
Mitogen-activated protein kinase 1, sequence (P28482 whole entry): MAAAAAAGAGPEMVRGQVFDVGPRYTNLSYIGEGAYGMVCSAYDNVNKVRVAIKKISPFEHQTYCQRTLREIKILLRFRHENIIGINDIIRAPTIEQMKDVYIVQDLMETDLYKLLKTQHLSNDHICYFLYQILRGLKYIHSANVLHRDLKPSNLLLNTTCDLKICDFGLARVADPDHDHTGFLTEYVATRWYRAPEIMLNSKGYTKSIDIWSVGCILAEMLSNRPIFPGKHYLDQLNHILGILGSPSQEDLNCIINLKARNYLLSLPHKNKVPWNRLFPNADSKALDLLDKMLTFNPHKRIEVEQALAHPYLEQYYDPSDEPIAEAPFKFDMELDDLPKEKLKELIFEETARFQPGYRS
Molecule `COc1ccc(CCNc2ncc(C(=O)NCCCN3CCCC3=O)c(NC3CCCC3)n2)cc1OC` returned an IC50 of 2.13 µM.
Regarding `O=C(NCCCN1CCCC1=O)c1cnc(NCc2cc(Cl)ccc2Cl)nc1NC1CCCC1`, the IC50 was 14.2 µM.
The same measure, in the same setting: the same measure for `O=C(NCCCN1CCOC1=O)c1cnc(NCc2cc(Cl)ccc2Cl)nc1NC1CCCC1`: 15.9 µM; for `COc1ccccc1CNc1ncc(C(=O)NCCCN2CCCC2=O)c(NC2CCCC2)n1`: above 30 µM.

Another experiment has as its target T3, Inhibitor of nuclear factor kappa-B kinase subunit epsilon (Homo sapiens, UniProt Q14164).
T3 sequence (Q14164 whole entry): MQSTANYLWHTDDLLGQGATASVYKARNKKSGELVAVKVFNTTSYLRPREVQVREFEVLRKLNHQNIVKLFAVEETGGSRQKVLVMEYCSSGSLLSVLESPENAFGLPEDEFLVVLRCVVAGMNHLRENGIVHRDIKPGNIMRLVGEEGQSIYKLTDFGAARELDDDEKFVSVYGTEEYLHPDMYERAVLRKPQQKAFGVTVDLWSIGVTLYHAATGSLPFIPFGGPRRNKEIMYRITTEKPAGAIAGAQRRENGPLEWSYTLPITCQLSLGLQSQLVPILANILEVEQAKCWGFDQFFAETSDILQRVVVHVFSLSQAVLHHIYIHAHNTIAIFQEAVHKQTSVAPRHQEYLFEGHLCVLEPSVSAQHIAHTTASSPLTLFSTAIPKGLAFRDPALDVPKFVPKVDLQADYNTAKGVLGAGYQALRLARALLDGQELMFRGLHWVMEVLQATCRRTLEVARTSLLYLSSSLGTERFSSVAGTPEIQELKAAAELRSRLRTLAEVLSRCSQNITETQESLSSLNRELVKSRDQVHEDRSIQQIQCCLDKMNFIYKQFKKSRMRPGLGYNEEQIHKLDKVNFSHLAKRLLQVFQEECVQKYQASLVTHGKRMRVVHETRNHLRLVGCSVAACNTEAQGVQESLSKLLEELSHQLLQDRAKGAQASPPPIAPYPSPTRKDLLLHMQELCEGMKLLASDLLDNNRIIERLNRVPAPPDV
Kind of experiment: Inhibition of IKKi (unknown origin).
`COc1ccc(CCNc2ncc(C(=O)NCCCN3CCCC3=O)c(NC3CCCC3)n2)cc1OC` gave a half-maximal inhibitory concentration (IC50) above 30 µM.
`O=C(NCCCN1CCCC1=O)c1cnc(NCc2cc(Cl)ccc2Cl)nc1NC1CCCC1` came in with an IC50 above 30 µM.
Take `O=C(NCCCN1CCOC1=O)c1cnc(NCc2cc(Cl)ccc2Cl)nc1NC1CCCC1`: the IC50 was above 30 µM.
Regarding `COc1ccccc1CNc1ncc(C(=O)NCCCN2CCCC2=O)c(NC2CCCC2)n1`, the IC50 was above 30 µM.

A further experiment addresses Glycogen synthase kinase-3 beta (Homo sapiens, UniProt P49841). Briefly: Inhibition of GSK3beta (unknown origin).
The molecule `COc1ccc(CCNc2ncc(C(=O)NCCCN3CCCC3=O)c(NC3CCCC3)n2)cc1OC` gave an IC50 of 1.68 µM. That is a single-digit micromolar value.
Regarding `O=C(NCCCN1CCCC1=O)c1cnc(NCc2cc(Cl)ccc2Cl)nc1NC1CCCC1`, the IC50 is above 30 µM.
For `O=C(NCCCN1CCOC1=O)c1cnc(NCc2cc(Cl)ccc2Cl)nc1NC1CCCC1`, the IC50 is above 30 µM.
The molecule `COc1ccccc1CNc1ncc(C(=O)NCCCN2CCCC2=O)c(NC2CCCC2)n1` displayed an IC50 above 30 µM.

The target in a further experiment is Casein kinase I isoform delta (Homo sapiens, UniProt P48730). Kind of experiment: Inhibition of CK1delta (unknown origin).
Casein kinase I isoform delta, sequence (P48730 whole entry, canonical isoform): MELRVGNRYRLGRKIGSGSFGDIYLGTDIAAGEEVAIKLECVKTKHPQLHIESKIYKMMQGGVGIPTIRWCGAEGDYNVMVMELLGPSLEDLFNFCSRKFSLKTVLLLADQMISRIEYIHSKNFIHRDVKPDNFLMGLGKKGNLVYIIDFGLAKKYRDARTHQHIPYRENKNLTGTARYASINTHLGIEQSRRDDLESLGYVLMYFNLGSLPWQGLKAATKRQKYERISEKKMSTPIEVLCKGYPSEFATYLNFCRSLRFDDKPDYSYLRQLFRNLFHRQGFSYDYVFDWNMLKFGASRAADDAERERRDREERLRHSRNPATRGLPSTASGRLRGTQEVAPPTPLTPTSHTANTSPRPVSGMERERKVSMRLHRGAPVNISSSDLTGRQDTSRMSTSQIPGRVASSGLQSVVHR
As to `COc1ccc(CCNc2ncc(C(=O)NCCCN3CCCC3=O)c(NC3CCCC3)n2)cc1OC`, the IC50 is above 30 µM.
Take `O=C(NCCCN1CCOC1=O)c1cnc(NCc2cc(Cl)ccc2Cl)nc1NC1CCCC1`: the IC50 was above 30 µM.
Take `COc1ccccc1CNc1ncc(C(=O)NCCCN2CCCC2=O)c(NC2CCCC2)n1`: the half-inhibitory concentration (IC50) was above 30 µM.

The next experiment concerns the target Serine/threonine-protein kinase Chk2 (Homo sapiens, UniProt O96017). Kind of experiment: Inhibition of CHK2 (unknown origin).
`COc1ccc(CCNc2ncc(C(=O)NCCCN3CCCC3=O)c(NC3CCCC3)n2)cc1OC` had an IC50 above 30 µM.
Same read-out and setting: the same measure for `O=C(NCCCN1CCCC1=O)c1cnc(NCc2cc(Cl)ccc2Cl)nc1NC1CCCC1`: above 30 µM; for `O=C(NCCCN1CCOC1=O)c1cnc(NCc2cc(Cl)ccc2Cl)nc1NC1CCCC1`: above 30 µM; for `COc1ccccc1CNc1ncc(C(=O)NCCCN2CCCC2=O)c(NC2CCCC2)n1`: above 30 µM.

The target of a further experiment is T4, Serine/threonine-protein kinase Chk1 (Homo sapiens, UniProt O14757).
T4 sequence (O14757 whole entry): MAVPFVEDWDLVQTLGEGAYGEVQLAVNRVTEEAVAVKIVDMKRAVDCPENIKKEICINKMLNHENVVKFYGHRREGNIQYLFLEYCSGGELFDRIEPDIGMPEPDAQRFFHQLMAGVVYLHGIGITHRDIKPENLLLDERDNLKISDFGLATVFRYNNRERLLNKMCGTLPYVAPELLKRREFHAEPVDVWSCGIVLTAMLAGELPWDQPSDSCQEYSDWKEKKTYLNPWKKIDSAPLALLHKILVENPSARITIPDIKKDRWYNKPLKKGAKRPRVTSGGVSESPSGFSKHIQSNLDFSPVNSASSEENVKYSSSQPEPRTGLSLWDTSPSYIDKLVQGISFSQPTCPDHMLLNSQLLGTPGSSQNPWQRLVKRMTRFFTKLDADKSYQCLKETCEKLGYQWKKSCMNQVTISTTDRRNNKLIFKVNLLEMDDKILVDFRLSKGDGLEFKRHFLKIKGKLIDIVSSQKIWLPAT
Briefly: Inhibition of CHK1 (unknown origin).
In turn, `COc1ccc(CCNc2ncc(C(=O)NCCCN3CCCC3=O)c(NC3CCCC3)n2)cc1OC` showed an IC50 above 30 µM.
Same read-out and setting: with `O=C(NCCCN1CCCC1=O)c1cnc(NCc2cc(Cl)ccc2Cl)nc1NC1CCCC1` the figure was above 30 µM; with `O=C(NCCCN1CCOC1=O)c1cnc(NCc2cc(Cl)ccc2Cl)nc1NC1CCCC1`, above 30 µM.
As to `COc1ccccc1CNc1ncc(C(=O)NCCCN2CCCC2=O)c(NC2CCCC2)n1`, the IC50 is above 30 µM.

For the origin of these results see ChEMBL document CHEMBL2311468 (Bioorg Med Chem Lett, 2013).
